Patent publication US11149028B2, “Methods for treating melanoma using small molecules” (NOVA SOUTHEASTERN UNIVERSITY, priority 2016, dated 2021)
Entries after “also recorded” stand apart in the source; their conditions may differ. Where two headings read alike, the source gives them in different places.

Assays:
[1] = tested on: WM266-4 cells; test: Cell staining for autophagy (autophagosome dye); assay type: cell-based, human; settings: for autophagy staining: 100 μM; for autophagy staining / morphology of unstained cells: 4 and 24 h; for morphology of unstained cells: bright field
Method: WM266-4 cells were seeded at 10,000 cells/well in 0.1 mL of E-MEM medium supplemented with 10% FBS and 1% penicillin/streptomycin in 96 well plates (Greiner Bio-One CellStar cat #655180) and allowed to adhere overnight. After overnight incubation 100 μM 2155-14, 2155-18, 50 nM hnRNPH2 siRNA or 25 μM 2476-67.2 were added and incubated for various length of time. Cells were rinsed with warm PBS and stained with CYTO-ID® 1.0 Autophagy reagent (Enzo ENZ-51031-0050) and counterstained with DAPI. Cells were imaged using Cytation 5 imager (Biotek Inc, Winooski, Vt.) using GFP and DAPI filter sets. For % autophagic cells calculations cell counts were conducted using DAPI-stained nuclei and Object Sum Area value was obtained from at least 1,000 cells/well using DAPI channels. To obtain number of cells undergoing autophagy the cell count was conducted using GFP channel. Both GFP and DAPI cell counts were conducted using optimized algorithm in automatic mode. 8 replicate wells were used. % autophagic cells was calculated using Equation 1:% autophagic cells=100%*(number of cells, GFP channenumber of cells, DAPI channel)
To calculate staining intensity, the Object Sum Area value from GFP channel was obtained and divided by number of cells using DAPI channel. Both GFP and DAPI cell counts were conducted using optimized algorithm in automatic mode. 3 replicate wells were used.

[2] = tested on: WM266-4 cells; test: CellTiter-Glo cell viability assay, WM266-4 (including rescue assays); assay type: cell-based, human; settings: for viability of WM266-4 cells: 24 h after addition
[3] = tested on: B16/F10 murine metastatic melanoma; test: Hexosaminidase viability assay, B16/F10; assay type: cell-based; settings: Mus musculus; for IC50: p53 mutation
Method: Hexosaminidase assay was used to study the effects of 2155-14 and 2155-18 on cell viability or cell proliferation of both B16/F-10 and SKMEL-28 cells
(Landegren, U. Measurement of cell numbers by means of the endogenous enzyme hexosaminidase. Applications to detection of lymphokines and cell surface antigens. J Immunol Methods 1984, 67, 379-388). In brief, cells were plated in 96 well plates, grown overnight and treated the next day with increasing concentrations of compounds (0-50 μM) for 48 h. After 48 h of treatment, media was discarded and cells were washed with PBS to remove residual media from wells. Hexosaminidase substrate (75 μL) (Sigma Aldrich; cat #N9376) was added to each well, incubated at 37° C. for 30 min followed by addition of 112.5 μL of developer into each well. Final absorbance was measured at λ=405 nm. Cell growth was calculated as percent viability=[([…])×100], where A and B were the absorbance of treated and control cells, respectively.

[4] = tested on: M14 cells; test: CellTiter-Glo viability assay, M14 melanoma cells (library screening, individual compounds, time course); assay type: cell-based, human; settings: for IC50: Homo sapiens, M14
Method: Mixture libraries were solubilized in 3% DMSO/H2O and added to polypropylene 384 well plates (Greiner cat #781280). 1,250 CHO-K1, A549, or M14 cells were plated in 384-well plates in 5 μL of serum-free media (F12 for CHO-K1 and A549, DMEM for M14). Test compounds and gefitinib (pharmacological assay control) were prepared as 10-point, 1:3 serial dilutions starting at 300 then added to the cells (5 μL per well) using the Biomek NX^P. Plates were incubated for 72 h at 37° C., 5% CO2 and 95% RH. After incubation, 5 μL of CellTiter-Glo® (Promega cat #: G7570) were added to each well, and incubated for 15 min at room temperature. Luminescence was recorded using a Biotek Synergy H4 multimode microplate reader. Viability was expressed as a percentage relative to wells containing media only (0%) and wells containing cells treated with 1% DMSO only (100%). Three parameters were calculated on a per-plate basis: (a) the signal-to-background ratio (SB); (b) the coefficient for variation [CV; CV=(standard deviation/mean)×100)] for all compound test wells; and (c) the Z′-factor (18). The IC50 value of the pharmacological control (gefitinib, LC Laboratories #G-4408) was also calculated to ascertain the assay robustness. Time course viability assay was performed as described for library screening with luminescence measurements performed at 4, 24, 48, and 72 h.

[5] = tested on: caspase 3/7 in WM266-4 cells; test: Caspase 3/7 activity assay; assay type: cell-based, human; settings: 0 and 4 h
Method: WM266-4 and M14 cells were plated in 384-well plates in 5 μL of complete media (EMEM and RPMI-1640, respectively). 5 μL of 200 μM 2155-14 and 2155-18 were added to the cells. Plates were incubated at 37° C., 5% CO2 and 95% relative humidity for various lengths of time. After incubation, 5 μL of caspase 3/7, caspase 8, and caspase 9 Glo® reagent (Promega cat #: G7570) were added to each well, and incubated for 15 min at room temperature. Luminescence was recorded using a Biotek Synergy H4 multimode microplate reader.

[6] = biological target: HDAC1 (Homo sapiens, UniProt Q13547); test: HDAC inhibition testing; assay type: biochemical; settings: up to 100 μM
Chain of HDAC1 (Q13547 whole entry, species assumed): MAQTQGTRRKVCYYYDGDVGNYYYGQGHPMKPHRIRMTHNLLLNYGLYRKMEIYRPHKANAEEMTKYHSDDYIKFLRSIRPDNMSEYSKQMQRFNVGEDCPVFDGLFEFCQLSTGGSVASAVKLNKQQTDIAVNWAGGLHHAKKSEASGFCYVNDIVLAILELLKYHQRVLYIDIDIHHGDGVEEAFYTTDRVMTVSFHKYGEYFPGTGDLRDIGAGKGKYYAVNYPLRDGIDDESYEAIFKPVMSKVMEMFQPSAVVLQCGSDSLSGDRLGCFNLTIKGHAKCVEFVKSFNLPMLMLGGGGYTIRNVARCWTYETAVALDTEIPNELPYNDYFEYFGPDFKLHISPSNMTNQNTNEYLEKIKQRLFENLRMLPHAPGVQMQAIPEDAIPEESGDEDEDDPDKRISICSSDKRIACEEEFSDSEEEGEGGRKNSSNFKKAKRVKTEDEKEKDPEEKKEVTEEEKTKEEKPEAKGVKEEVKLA

Compound | autophagy staining [1] | morphology of unstained cells [1] | cells undergoing autophagy ([1]; quantitation of representative image, FIG. 18D) [%] | inhibition of WM266-4 viability ([2]; 100 μM, 72 h) | viability after pre-incubation with caspase inhibitors ([2]; 24 h, 10 μM Z-IETD-FMK and Z-VAD-FMK) | viability of WM266-4 cells [2] | viability of WM266-4 cells with caspase inhibitor pre-treatment ([2]; 48 h of exposure) [%] | IC50 ([2]; 72 h) [nM] | IC50 ([2]; 72 h, listed as 2529-1) [nM] | IC50 [3] [nM] | cytotoxicity at 10 µM ([3]; starting at 10 μM, read-out: inhibition of B16/F10 viability) [%] | inhibition of M14 cell viability at highest concentration ([4]; 100 μM) | IC50 ([4]; individual compounds, read-out: IC50 for M14 cells) [nM] | caspase 3/7 activity vs untreated control [5] | HDAC1 inhibition [6] | IC50 ([4]; read-out: IC50 for M14) [nM] | activity towards M14 cells ([4]; individual compounds)
O=C1NC[C@H](Cc2ccccc2)N(C[C@@H]2CCCN2C[C@@H](CC2CCCCC2)N2C[C@H](Cc3ccc(O)cc3)N(CCc3ccccc3)C(=O)C2=O)C1=O [Compound 2155-14, (S)-1((R)-1((S)-2-(((S)-6-benzyl-2,3-dioxopiperazin-1-yl)methyl)pyrrolidin-1-yl)-3-cyclohexylpropan-2-yl)-5-(4-hydroxybenzyl)-4-phenethylpiperazine-2,3-dione] | stained positive for autophagy as early as 4 h after compound addition; also recorded: At 24 h the intensity of autophagy staining increased; also recorded: stain positive for autophagy at 4 h | exhibited traits of apoptosis; also recorded: extensive cell death | 57 | completely inhibited viability | almost completely restored | impaired | ~25 | 4000 ± 500 | 1500 ± 200 | 2700 ± 200 | ~100 | not able to fully inhibit | 3600 ± 300 | not statistically different from untreated control | lack of HDAC inhibition |  | 
O=C1NC[C@H](Cc2ccccc2)N(C[C@@H]2CCCN2C[C@H](Cc2ccccc2)N2C[C@H](Cc3ccc(O)cc3)N(CCC34CC5CC(CC(C5)C3)C4)C(=O)C2=O)C1=O [Compound 2155-18, (S)-4-(2-(adamantan-1yl)ethyl)-1-((S)-1-((S)-2-(((S)-6-benzyl-2,3-dioxopiperazin-1-yl)methyl)pyrrolidin-1-yl)-3-phenylpropan-2-yl)-5-(4-hydroxybenzyl)piperazine-2,3-dione] | did not stain positive for autophagy | exhibited traits of apoptosis; also recorded: less pronounced than 2155-14 |  |  |  | impaired |  |  |  | 1150 |  |  |  | not statistically different from untreated control | lack of HDAC inhibition | 745 ± 60 | improved activity
